Experimental data as given in US20080070987A1, “META-XYLYLENEDIAMINE VANADATE SALTS” (priority 2006, published 2008).

Assays:
Mouse SSAO/VAP-1 = molecular target: T1, Mouse SSAO/VAP-1 (Mus musculus, UniProt O70423); assay: Fluorimetric detection of SSAO-mediated H2O2 formation (Amplex Red), mouse adipose tissue membranes; type: biochemical; conditions: production of hydrogen peroxide; compounds at 100 μM
T1 construct: from tissue; host or cells: internal adipose tissue membranes of Swiss mice
T1 sequence (O70423 1-765): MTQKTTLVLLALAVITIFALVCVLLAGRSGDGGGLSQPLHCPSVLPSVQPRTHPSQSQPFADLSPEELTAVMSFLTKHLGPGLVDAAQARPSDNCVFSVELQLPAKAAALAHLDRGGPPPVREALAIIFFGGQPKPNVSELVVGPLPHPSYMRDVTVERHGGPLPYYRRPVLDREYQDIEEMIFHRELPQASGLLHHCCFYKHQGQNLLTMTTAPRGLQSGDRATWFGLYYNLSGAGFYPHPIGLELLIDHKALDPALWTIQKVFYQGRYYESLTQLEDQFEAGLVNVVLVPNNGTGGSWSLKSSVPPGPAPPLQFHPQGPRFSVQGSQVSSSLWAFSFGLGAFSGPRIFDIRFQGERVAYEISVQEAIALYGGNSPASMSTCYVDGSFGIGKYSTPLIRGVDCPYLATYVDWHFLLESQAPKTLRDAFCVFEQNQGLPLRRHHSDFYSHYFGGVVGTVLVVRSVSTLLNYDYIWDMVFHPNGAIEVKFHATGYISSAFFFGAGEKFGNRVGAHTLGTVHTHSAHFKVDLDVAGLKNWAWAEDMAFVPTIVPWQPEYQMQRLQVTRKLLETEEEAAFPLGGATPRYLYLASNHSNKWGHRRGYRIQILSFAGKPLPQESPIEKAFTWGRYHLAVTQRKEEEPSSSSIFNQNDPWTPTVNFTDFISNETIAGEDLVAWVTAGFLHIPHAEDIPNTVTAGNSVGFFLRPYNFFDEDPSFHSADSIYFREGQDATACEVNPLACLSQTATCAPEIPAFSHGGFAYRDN
Method: Internal adipose tissue was obtained from Swiss mice weighing between 20 to […]. […] The lysates were then centrifuged at 5000 g at 4° C. for 15 min to eliminate the fat cake and non-homogenized material, and supernatants were collected and centrifuged at 200000 g for 2 h at 4° C. Pelleted membranes were resuspended in 30 mmol/l HEPES and stored at −80° C. until use. Protein concentrations were measured by the Bradford method with γ-globulin as standard.
(§1) The SSAO activity of human recombinant VAP-1 (0.1 μg prot/assay) and mouse adipose tissue membranes (1 μg prot/assay) was measured using Amplex Red Reagent, a highly sensitive and stable probe for H2O2. The reaction was performed in 200 μL of 0.2 mol/l phosphate buffer at pH 7.4 for 50 min at 37° C. in black non-phosphorescent microplates (Nunc). Catalytic reaction was initiated by the addition of the amines indicated as putative SSAO substrates and H2O2-detecting mixture containing horseradish peroxidase and Amplex Red, as previously described. Fluorescence intensity was measured (excitation, 545 nm, 590 nm, Bio-Tek fluorescence plate reader) and H2O2 concentration was calculated form calibration curves generated by serial dilutions of standard H2O2. Fluorescence readings were performed every 5 min. […] To test amines as putative SSAO inhibitors, they were pre-incubated for 20 min with semicarbazide, and their percentage of inhibition was calculated by referring to SSAO activity produced by benzylamine. The kinetic parameters Km and Vmax were calculated using appropriate non-linear curve-fitting formula based on the Michaelis-Menten equation and using GraphPad Prism 4.0 software.

Human SSAO/VAP-1 = molecular target: T2, Human SSAO/VAP-1 (Homo sapiens, UniProt Q16853); assay: Fluorimetric detection of SSAO-mediated H2O2 formation (Amplex Red), human recombinant VAP-1; type: biochemical; conditions: production of hydrogen peroxide; compounds at 1 mM
T2 sequence (Q16853 1-763): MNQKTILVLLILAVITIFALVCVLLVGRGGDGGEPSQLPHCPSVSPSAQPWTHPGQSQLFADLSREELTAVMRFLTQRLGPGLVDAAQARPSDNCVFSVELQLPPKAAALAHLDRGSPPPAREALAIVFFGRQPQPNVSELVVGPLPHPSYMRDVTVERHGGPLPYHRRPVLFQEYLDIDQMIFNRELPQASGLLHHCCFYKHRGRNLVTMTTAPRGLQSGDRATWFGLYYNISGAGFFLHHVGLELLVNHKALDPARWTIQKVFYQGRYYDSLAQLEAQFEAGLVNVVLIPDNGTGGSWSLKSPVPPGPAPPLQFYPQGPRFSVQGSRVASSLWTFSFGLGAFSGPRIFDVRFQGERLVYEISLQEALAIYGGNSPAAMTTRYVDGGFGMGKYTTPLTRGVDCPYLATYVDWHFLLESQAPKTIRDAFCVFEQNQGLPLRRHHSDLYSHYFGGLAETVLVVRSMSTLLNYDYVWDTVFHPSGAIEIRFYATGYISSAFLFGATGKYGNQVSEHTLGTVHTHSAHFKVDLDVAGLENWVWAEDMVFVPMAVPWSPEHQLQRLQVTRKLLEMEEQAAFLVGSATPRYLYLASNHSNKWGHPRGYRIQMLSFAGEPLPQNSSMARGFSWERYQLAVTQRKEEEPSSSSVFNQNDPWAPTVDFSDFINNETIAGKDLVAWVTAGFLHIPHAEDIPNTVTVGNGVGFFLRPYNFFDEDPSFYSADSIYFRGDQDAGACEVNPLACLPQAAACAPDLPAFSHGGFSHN
Method: as §1

isolated rat adipocytes = assay: Glucose (2-deoxyglucose) transport in isolated rat adipocytes; type: cell-based, Wistar rats; conditions: for stimulation of glucose transport (2-DG uptake), in words: 45 min incubation; for effect of semicarbazide on the stimulation of glucose transport: 1 mM semicarbazide
Method: FIG. 1 is a graphical illustration of the hexaquis(benzylammonium) decavanadate effects on glucose transport in isolated rat adipocytes. In this Figure, V corresponds to the rate of 2-deoxyglucose transport (expressed relative to the basal rate), and the results are mean +standard error of the mean (SEM). The adipocytes were incubated in the absence of stimulants in the following conditions: basal (1); in the presence of 100 nM insulin (2); in the presence of hexaquis(benzylammonium) decavanadate at concentrations of 0.5 μM (3), 1 μM (4), 2.5 μM (5), 5 μM (6), 10 μM (7), 25 μM (8), 50 μM (9), and 100 μM (10). The cells were also incubated in the presence of the semicarbazide inhibitor (1 mM), and 10 μM hexaquis(benzylammonium) decavanadate (11), 25 μM of hexaquis(benzylammonium) decavanadate (12) or 50 μM hexaquis(benzylammonium) decavanadate (13). In parallel, the cells were incubated in presence of 100 μM of sodium vanadate and 100 μM of benzylamine, in the absence (14) or in the presence of 1 mM of semicarbazide (15).
FIG. 2 is a graphical illustration of the effects of hexaquis(benzylammonium) decavanadate, pentaquis(benzylammonium) decavanadate and tetraquis(benzylammonium) decavanadate on glucose transport in isolated rat adipocytes. V corresponds to the rate of 2-deoxyglucose uptake (expressed as relation with basal group), and the results are mean +standard error mean. The adipocytes were incubated in the absence of stimulants in the following conditions: basal (1); in the presence of 100 nM of insulin (2); in the presence of hexaquis(benzylammonium) decavanadate at concentrations of 10 μM (3) and 25 μM (4), pentaquis(benzylammonium) decavanadate at concentrations of 10 μM (8) and 25 μM (9), and tetraquis(benzylammonium) decavanadate at concentrations of 10 μM (11) and 25 μM (12). The cells were also incubated in the presence of the semicarbazide inhibitor (1 mM) and, 25 μM of hexaquis(benzylammonium) decavanadate (5), 25 μM of pentaquis(benzylammonium) decavanadate (10) or 25 μM of tetraquis(benzylammonium) decavanadate (13). In parallel, the cells were incubated in the presence of 100 μM of sodium vanadate (6) or in the presence of 250 μM of sodium vanadate (7).
Adipose cells from Wistar rats were incubated for 45 minutes in basal conditions (Basal) or in the presence of 100 nM insulin (Ins) and different concentrations of. hexaquis(benzylammonium) decavanadate (B6V10) in the absence or in the presence of 1 mM semicarbazide (SCZ). Subsequently, 2-DG transport was measured over a 5 min. interval.
The effects of the three tested compounds (B6V10, B5V10 and B4V10) were compared. Adipose cells from Wistar rats were incubated for 45 minutes in basal conditions (Basal) or in the presence of 100 nM insulin (Ins), and different concentrations of decavanadate (V10), hexaquis(benzylammonium) decavanadate (B6V10), pentaquis(benzylammonium) decavanadate (B5V10) or tetraquis(benzylammonium) decavanadate (B4V10) in the absence or in the presence of 1 mM semicarbazide (SCZ). 2-DG transport was measured over 5 min. intervals.
In additional experiments, compounds shown in FIG. 6A, 2-(4-fluoro-phenyl)ethylamine (compound A), 3-phenylpropylamine (compound B), 4-fluoro-benzylamine (compound C) and 4-phenylbutylamine (compound D) were assessed using the experimental methods set forth above for the capacity to stimulate 2-DG uptake in isolated rat adipocytes. Adipose cells from Wistar rats were incubated for 45 minutes in basal conditions (Basal) or in the presence of 100 nM insulin (Ins), and different concentrations of vanadium salts of 2-(4-fluoro-phenyl)-ethylamine (compound A), 3-phenyl-propylamine (compound B), 4-fluoro-benzylamine (compound C) and 4-phenyl-butylamine (compound D). 2-DG transport was measured over 5 min.
The effects of incubation with semicarbazide or phosphatidylinositol 3-kinase inhibitors were also investigated. […]

| Molecule | Mouse SSAO/VAP-1 activity % relative to benzylamine (Mouse SSAO/VAP-1) | Human SSAO/VAP-1 activity % relative to benzylamine (Human SSAO/VAP-1) | stimulation of glucose transport (2-DG uptake), in words (isolated rat adipocytes) | other results |
| --- | --- | --- | --- | --- |
| NCc1cccc(CNC(=O)c2ccc(O)cc2)c1 [Example 10, N-(3-(aminomethyl)benzyl)-4-hydroxybenzamide] | 26 ± 1% | 5 ± 1% |  |  |
| NCc1cccc(CNC(=O)c2ccc(Br)cc2)c1 [Example 12, N-(3-(aminomethyl)benzyl)-4-bromobenzamide] | 46 ± 1% | 16 ± 2% |  |  |
| NCc1cccc(CNC(=O)c2ccccc2)c1 [Example 6, N-(3-(aminomethyl)benzyl)benzamide] | 58 ± 4% | 17 ± 1% |  |  |
| CC(=O)N[C@H](C(=O)NCc1cccc(CN)c1)c1ccccc1 [Example 7, (S)-2-acetamido-N-(3-(aminomethyl)benzyl)-2-phenylacetamide] | 13 ± 3% | 2 ± 1% |  |  |
| CCC(=O)NCc1cccc(CN)c1 [Example 3, N-(3-(aminomethyl)benzyl)propionamide] | 27 ± 1% | 4 ± 1% |  |  |
| NCCCCc1ccccc1 [compound D, 4-phenylbutylamine] |  |  | markedly stimulated glucose transport |  |
| C=CCOC(=O)NCc1cccc(CN)c1 [Example 5, allyl 3-(aminomethyl)benzylcarbamate] | 49 ± 3% | 21 ± 1% |  |  |
| Cc1ccc(S(=O)(=O)NCc2cccc(CN)c2)cc1 [Example 8, N-(3-(aminomethyl)benzyl)-4-methylbenzenesulfonamide] | 14 ± 3% | 12 ± 2% |  |  |
| NCc1cccc(CNC(=O)CI)c1 [Example 4, N-(3-(aminomethyl)benzyl)-2-iodoacetamide] | 61 ± 5% | 38 ± 3% |  |  |
| NCc1ccc(F)cc1 [compound C, 4-fluoro-benzylamine] |  |  | markedly stimulated glucose transport |  |
| CC(=O)NCc1cccc(CN)c1 [Example 2, N-(3-(aminomethyl)benzyl)acetamide] | 16 ± 4% | 3 ± 1% |  |  |
| NCc1ccccc1 [Example 1, benzylamine, reference compound] | 100% | 100% |  |  |
| NCCc1ccc(F)cc1 [compound A, 2-(4-fluoro-phenyl)ethylamine] |  |  | markedly stimulated glucose transport |  |
| NCc1ccc(C(=O)NCc2cccc(CN)c2)cc1 [Example 11, 4-(aminomethyl)-N-(3-(aminomethyl)benzyl)benzamide] | 12 ± 1% | 17 ± 2% |  |  |
| tetraquis(benzylammonium) decavanadate [Example B4V10] |  |  | pronounced stimulation on glucose transport | effect of semicarbazide on the stimulation of glucose transport (isolated rat adipocytes): blocked in the presence of semicarbazide; effect of semicarbazide on the stimulation of glucose transport (isolated rat adipocytes; listed as tetraquis(benzylammonium) decavanadate): this effect was inhibited |
| pentaquis(benzylammonium) decavanadate [Example B5V10] |  |  | pronounced stimulation on glucose transport | effect of semicarbazide on the stimulation of glucose transport (isolated rat adipocytes): blocked in the presence of semicarbazide; effect of semicarbazide on the stimulation of glucose transport (isolated rat adipocytes; listed as pentaquis(benzylammonium) decavanadate): this effect was inhibited |
| NCCCc1ccccc1 [compound B, 3-phenylpropylamine] |  |  | markedly stimulated glucose transport |  |
